The target in one series is Sigma σ2 receptor (Homo sapiens, UniProt Q5BJF2). In words: Receptor binding, σ2.
Series [1] deals with mechano-allodynia (paw withdrawal threshold). In words: Sciatic nerve chronic constriction injury (CCI) model of neuropathic pain. The class given is in vivo, mice. The method, then: DDD-028 was evaluated in chronic constriction injury (CCI) model of neuropathic pain in mice as described by Bennett et al., which is incorporated herein in its entirety. Two male CDI mice (weighing 25-30 g at the time of surgery) were used in this study. The hydrochloride salt of DDD-028 was dissolved in distilled water at 0.15 mg/mL and was administered to the mice to the final dose of 1.0 mg/kg (3.5 gmol/kg) for oral administration (via gavage) or 0.3 mg/kg (1.2 gmol/kg) for intrathecal administration (injection) at peak mechano-allodynia. Baseline PWT measurements (pre-surgery) of the left-hind paw of each animal were taken prior to sciatic nerve ligation. The mice were then anesthetized with 3% isoflurane/100% O2 inhalation, and maintained on 2% isoflurane/100% O2 for the duration of surgery. The left thigh was shaved, scrubbed with Nolvasan, and a small incision (1-1.5 cm in length) was made in the middle of the lateral aspect of the left thigh to expose the sciatic nerve. The nerve was loosely ligated around the entire circumference of the nerve at three distinct sites (spaced 1 mm apart) using silk sutures. The surgical site was closed with a single muscle suture and a skin clip. Peak mechano-allodynia generally develops 7 […]. After 7 days post-surgery, Paw Withdrawal Threshold (PWT, g) measurements were taken for each animal to determine the extent of mechanical allodynia. PWT's were measured at 15 min, 30 min, 60 min, 120 min, and 180 min following administration of the drugs or vehicle. […] DDD-028 had no effect on PWT in contralateral paws.

Series [2] relates to mechanical allodynia (paw withdrawal threshold). The experiment in a line: Spinal nerve ligation (SNL) model of neuropathic pain. The series is classed as in vivo, rats. As for the experimental part:
DDD-028 was evaluated in spinal nerve ligation (SNL) model of neuropathic pain in rats as described by Kim et al., which is incorporated herein in its entirety. DDD-028 was prepared as a suspension (1.0 mg/mL) in 5% PEG/5% Tween-80/90% saline; and pregabalin (reference compound, positive control) was prepared as a solution in normal saline (7.9 mg/mL). Both compounds were administered to the animals via oral gavage to a final dose of 5.0 mg/kg (17.4 gmol/kg) for DDD-028; and 39.0 mg/kg (250.2 gmol/kg) for pregabalin. Control animals received the vehicle (5% PEG/5% Tween-80/90% saline). Mechanical allodynia was measured by the up and down method using calibrated von Frey filaments (Linton Instruments). Eighteen male CD rats were used in this study. The animals were divided into three groups (vehicle, DDD-028, and pregabalin) containing 6 animals in each group. Baseline PWT measurements (pre-surgery) of the left-hind paw of each animal in the group were taken prior to spinal nerve ligation. Thereafter, the rats were anesthetized using 1-3% isofluorane, and the L5 spinal nerve was isolated and ligated tightly using silk thread. Peak mechano-allodynia generally develops by day 7 following surgery. After 7 days post-surgery, PWT measurements were taken for each animal to determine the extent of mechanical allodynia. Animals were then weighed, allocated to the treatment group, and administered the test compound, DDD-028, the reference compound, pregabalin, or the vehicle. PWT's were measured at 15 min, 30 min, 60 min, 120 min, and 180 min following administration of the drugs or vehicle.

The test system of series [3] is mechanical allodynia (percent weight distribution of left hind paw). The experiment in a line: Complete Freund's Adjuvant (CFA)-induced model of inflammatory pain. The series is classed as in vivo. The following applies: rats. As for the experimental part:
DDD-028 was evaluated in Complete Freund's Adjuvant (CFA)-induced model of inflammatory pain in rats as described by Stein et al., which is incorporated herein in its entirety. Fifteen male CD rats were used in this study. The animals were divided into three groups (vehicle, DDD-028, and indomethacin) containing 5 animals in each group. Baseline weight distribution of each animal in the groups was measured taken prior to CFA administration. Three readings were taken for each paw in each animal. Each reading was take over 3 seconds. Animals were lifted or the paws adjusted between each reading to ensure that animals were positioned correctly on the force pads. The percent weight bearing was calculated on the left leg for each reading. The mean of the three readings were then calculated for each animal. Following baseline measurements, the rats were anesthetized using 1-3% isofluorane, and were given subplantar injection of 0.1 mL of CFA into the left hind paw. Percent weight distributions of the left hind paws of each animal in the three groups were measured at 24 hours post-administration to determine the extent of mechanical allodynia. Animals were then weighed, allocated to the treatment group, and administered the test compound, DDD-028, the reference compound, indomethacin, or the vehicle. Weight distributions were measured at 15 min, 30 min, 60 min, and 120 min following administration of the drugs or vehicle.

Sequence of Sigma σ2 receptor (Q5BJF2 whole entry): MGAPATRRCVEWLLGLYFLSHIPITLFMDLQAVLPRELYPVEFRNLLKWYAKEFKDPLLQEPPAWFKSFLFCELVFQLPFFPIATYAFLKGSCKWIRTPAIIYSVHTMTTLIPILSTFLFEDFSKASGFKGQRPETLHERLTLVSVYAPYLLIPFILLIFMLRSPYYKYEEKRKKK

`CN1CCc2c(c3cccc4c3n2CCc2ccccc2-4)C1` [Compound 13] returned an inhibition constant (Ki) on Sigma σ2 receptor of 312 nM. Moreover, the “effect on PWT in contralateral paws” value in series [1] (mice, CCI, 1.0 mg/kg oral or 0.3 mg/kg intrathecal) is listed as “no effect”. In series [1] (mice, CCI, hydrochloride salt, 1.0 mg/kg oral or 0.3 mg/kg intrathecal), the “time of maximal effect on mechano-allodynia” value was at most 30 min. The adverse effects entry in series [2] (rat, in vivo, po, 5 mg/kg) was “No adverse effects were evident”. In addition, the “time of maximal anti-nociceptive effect” value in series [2] (rats, SNL, 5.0 mg/kg oral) is “about 60 minutes”. In addition, in series [2] (rats, SNL, DDD-028 5.0 mg/kg vs pregabalin […], oral), the “potency relative to pregabalin” value was “about 5 fold”. For the same molecule, in series [3] (oral), the adverse effects result is “No adverse effects were evident”, the “potency relative to indomethacin” value was “about 5 fold” and the “time of maximal anti-nociceptive effect” value is given as “about 60 minutes”.

On to `COc1ccc2c(c1)c(CC(=O)O)c(C)n2C(=O)c1ccc(Cl)cc1` [indomethacin, reference compound], for which, in series [3] (2 hours post-administration), the adverse effects result is reported as “mild sedation”.

Regarding `CC(C)C[C@H](CN)CC(=O)O` [pregabalin, reference compound], in series [1] (as printed in Example 5 (CCI), 1-3 hours post-administration), the adverse effects result is “mild sedation”.

The Ki is a measure of affinity in units of concentration, obtained from inhibition or displacement. A lower Ki goes with a stronger hold on the target.
